Results on one compound are retold here after patent US8992444B2, “Devices, systems, and methods for determining isometric and isotonic activity of luminal organs” (DTherapeutics, LLC, priority 2005, dated 2015).

The test system of test [1] is carotid and femoral arteries. Kind of test: isovolumic myograph, vasoactivity of arterial segments. As to conditions: concentration-dependent contraction, FIG. 2. Also on record: species or system Wistar rats. On the procedure: Six Wistar rats weighing 300-350 g were used in the study. The animals were anesthetized with sodium pentobarbital (60 mg/kg, ip). A heating pad was used to maintain the body temperature of the animal during anesthesia. The left carotid and common femoral arteries of the rat were exposed and cannulated for blood pressure measurements. This was done to measure the in vivo difference in blood pressure between carotid and femoral arteries. Several 1 cm segments of right carotid and femoral arteries were excised and immediately stored in 4° C. physiological saline solution (PSS).
The samples were then prepared to be tested in the exemplary isovolumic myograph according to the present disclosure as shown in FIG. 1. To prepare the samples, PSS was first contained in an organ bath with a controlled heating system and warmed to 37° C. […]
Vessel 3 and pressure transducer 5 are isolated from the pressure system when vessel 3 is pressurized and the two stopcocks 6 and 7 are closed to vessel 3. […] The changes of the pressure are recorded. […]
The dosage-dependent vasoconstriction in response to phenylephrine was recorded. The dosage- and endothelium-dependent vasodilatation in response to acetylcholine was also recorded in phenylephrine pre-constriction. The dosage-dependent and endothelium-independent vasodilatation in response to sodium nitroprusside (SNP) was recorded in phenylephrine pre-constriction. […]

For test [2], the system named is aorta, femoral artery, and mesenteric artery. Nature of the test: isovolumic myography, dose-dependent vasoconstriction and vasodilatation. Also on record: species or system Wistar male rats. As to conditions: 10^−5 mole/l; three types of arteries at physiological pressure. Here is the method:
Animals and tissue preparation. […] Six aorta, six femoral arteries, and six mesenteric arteries were harvested from eighteen rats. The animals were acclimated to the testing facility for approximately one week prior to the start of the study. On the day of termination, each animal was first anesthetized with sodium pentobarbital (80 mg/kg, i.p.) and euthanized by overanesthesia with sodium pentobarbital ([…], i.p.). Either the aorta, common femoral artery, or mesenteric artery were excised quickly and placed in ice-cold physiological saline solution (PSS in mmole/L: 119 NaCl, 4.7 KCl, 25 NaHCO3, 1.17 KH2PO4, 1.17 MgSO4, 1.6 CaCl, 5.5 Dextrose, solution gassed by 95% O2/5% CO2). The artery was carefully cleaned from adjacent tissue with the aid of a stereo-dissection microscope. The branches on the artery were ligated and the artery was allowed to warm up to room temperature (22° C.) slowly in approximately 10-15 min. The artery was transferred to the chamber of isovolumic system and cannulated with connectors and secured with 8-0 suture twice to avoid any leakage. The artery was warmed up to 37° C. slowly (20-25 min) and equilibrated for 40 min at a transmural pressure of 15 mmHg before agonist and antagonist stimulation.
Isovolumic myography. […]

With `CNC[C@H](O)c1cccc(O)c1` [phenylephrine], in test [1], the “concentration at which the pressure in the vessel reached a maximum” value was 3 µmol/L. Further, in test [2], the “increase in intraluminal pressure” value is given as 30 to 40 mmHg.
